Reference: US11612643B2, “Col14A1-derived tumor antigen polypeptide and use thereof” (Genoimmune Therapeutics Co., Ltd., priority 2016, dated 2023)

How the values were obtained:
CD8+ T cells [1] = test: ELISPOTs detection of IFN-gamma secretion by peptide-specific CD8+ T cells; assay type: cell-based, human; details: ratio of spot numbers; >2 immunogenic
T2 cells = test: LDH release assay, killing of peptide-loaded T2 target cells by CD8+ T cells; assay type: cell-based, human; details: T2 loaded with wild-type FMVDGSWSI, 4 h
Description: The cells cultured in Example 3 were co-cultured with T2 cells loaded with the mutant peptides of the present invention or the wild-type peptide or without a peptide. A maximum release well, a volume correction well, a medium control well, a spontaneous release well and control wells for example at different effector-to-target ratios (ratios of T cells to T2 cells) were set in this experiment. Three replicate wells were set for each group. After 4 h, 50 μl of the co-culture supernatant was taken out and added to 50 μl of LDH substrate mixture to catalyze the reaction of LDH substrate. Finally, the plates were read at a wavelength of 490 nm, with a reference wavelength of 680 nm, and the killing activity against target cells T2 was calculated based on the control wells.

CD8+ T cells [2] = test: ELISPOTs detection of IFN-gamma secretion by peptide-specific CD8+ T cells; assay type: cell-based, human; details: for Conclusion (immunogenicity): ELISPOTs; for Number of spots in the wild-type peptide group: T cells activated by listed peptide + T2 loaded with wild-type peptide FMVDGSWSI, 20 h
From the text: In this example, a ELISPOTs detection kit (Cat. No.: 3420-4AST-10, MABTECH) was used to verify the activation of an immune response of CD8+ T cells by the peptides of the present invention.
Principle of the ELISPOTs detection method is as follows: CD8+ T cells can specifically recognize the complex of HLA-A0201 and a peptide. The population of T cells recognizing the complex of the peptide and HLA-A0201 is varying, depending on the peptide sequence. Since T2 cells express HLA-A0201, CD8+ T cells can specifically recognize the T2 cells loaded with a peptide. After specific recognition of the complex of HLA-A0201 and the peptide, peptide-specific CD8+ T cells can be activated again to secrete IFN-gamma interferon. The IFN-gamma interferon secreted by the activated CD8+ T cells can be captured by antibodies on the ELISPOTs plate. Finally, the enzyme-conjugated antibody that recognizes IFN-gamma can degrade the substrate through the enzyme conjugated thereto and develop color, eventually producing spots. The number of spots represents the number of cells that are activated to secrete IFN-gamma interferon.
The cultured cells from Example 3 were added, along with T2 cells loaded with the mutant peptide […] of the present invention and the wild-type peptide […], respectively, into ELISPOTs plates, and cultured for 20 h, and then a ELISPOTs detection was performed (see the kit instruction). Finally, the spots produced by the ELISPOTs detection were counted.
The peptide was determined to have immunogenicity when the number of spots of the tested peptide/the number of spots of an unrelated peptide>2; that is, if the number of spots caused by the tested peptide is more than twice than that of an unrelated peptide, the tested peptide is determined to have immunogenicity.

HLA-A0201 = target: T1, HLA-A0201 (Homo sapiens, UniProt P04439, D140Y/D185E/D98H/E176V/E277Q/G131W/G231S/I119V/I121R/I166T/I218V/L300P/L318F/N151K/N90K/P208A/P217A/Q86G/Q94H/R138H/R169H/T345S); test: Affinity verification of the peptides to T2 cells (flow cytometry, FITC anti-HLA-A0201); assay type: cell-based; details: added peptide 100 μM, FI>1.5 high affinity for HLA-A0201, listed as wild-type peptide
T1 construct: T2 cells (a lymphocyte, tumor cell line, expressing HLA-A0201); host or cells: T2 cells (TAP-deficient T/B lymphocyte hybridoma, HLA-A2 positive)
Description: 10 μg/ml of each peptide as described above was added, and human β2 microglobulin (at a final concentration of 3 μg/ml) was added and cultured overnight in an incubator (37° C., 5% CO2). Two replicate wells were set up for each group.
Cells were collected by centrifugation of the cell culture at 200 g for 5 minutes. The collected cells were washed twice with PBS, and then directly incubated with FITC-conjugated anti-HLA-A0201 monoclonal antibody at 4° C. for 30 minutes. The mean fluorescence intensity (MFI) was then detected and analyzed by flow cytometer (BD FACSJazz™) and its software. The fluorescence index (FI) was calculated by using the following formula: FI=[MFIsample−MFIbackground]/MFIbackground;

[3] = effector-to-target ratio (10:1)

Row | Sequence | Fold (tested/wild-type) (CD8+ T cells [1]) | killing activity against target cells T2 (T2 cells; effector-to-target ratio (1:1)) [%] | killing activity against target cells T2 (T2 cells; [3]) [%] | Conclusion (immunogenicity) (CD8+ T cells [2]) | Number of spots in the wild-type peptide group (CD8+ T cells [2]) | FI (fluorescence index) (HLA-A0201)
1 | FLVDGFWSI | 11.21 | 2.65 | 5.53 | immunogenic | 28 | 
2 | FLVDGFWSL | 10.26 | 3.13 | 6.33 | immunogenic | 30 | 
3 | FLVDGFWSV | 9.71 | 3.26 | 6.01 | immunogenic | 31 | 
4 | FMVDGFWSL | 8.86 | 3.12 | 4.91 | immunogenic | 37 | 
5 | FMVDGFWSV | 7.87 | 3.37 | 5.63 | immunogenic | 41 | 
6 | FMVDGSWSI [wild-type COL14A1 peptide used as comparator] |  |  |  |  |  | greater than 1.5
